Laboratory results published in patent US11578055B2, “Triazacyclododecansulfonamide (“TCD”)-based protein secretion inhibitors” (KEZAR LIFE SCIENCES, priority 2018, dated 2023).
Counter-ions that a name gives are not always drawn. Like-named read-outs stand apart in the source and are kept apart here.

Legend:
[1] = tested on: PD1 signal sequence plus 10 amino acids fused to Gaussia Luciferase (PD1-ss+10aa/Gaussia Luciferase); assay: Dox Induced PD1-ss-Gluc Assay; assay type: cell-based; settings: 24 hr, read-out: 24 hr Dox Inducible PD1ssGluc 293FRT/TO: Mean IC50
Method in brief: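 Compound dilutions in DMSO/media containing doxycycline were applied to a stable, inducible 293 T-REx line carrying the luciferase fusion, then incubated at 37 °C, 5% CO2. Where stereochemistry is not drawn, values relate to isomer mixtures.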

[2] = tested on: full length TNFα (amino acids 1-233) fused to Gaussia Luciferase; assay: Dox Induced TNFα-FL-Gluc Assay; assay type: cell-based; settings: 24 hr, read-out: 24 hr Dox Inducible TNFaFLGluc 293FRT/TO: Mean IC50
Method in brief: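 Compounds diluted in DMSO/medium with doxycycline were incubated at 37° C, 5% CO2 with 293 T-REx cells stably carrying a Tet-regulated TNFα(1-233)-Gaussia luciferase construct. Data for structures drawn without stereochemistry refer to stereoisomer mixtures.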

[3] = tested on: full length IL-2 (amino acids 1-153) fused to Gaussia Luciferase; assay: Dox Induced IL2-FL-Gluc Assay; assay type: cell-based; settings: 24 hr, read-out: 24 hr Dox Inducible IL2FLGluc 293FRT/TO: Mean IC50
Method in brief: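 Compounds in DMSO/media with doxycycline were added to cells plated the previous day and incubated at 37° C, 5% CO2. Cells: stable Flp-In 293 T-REx line, Dox-regulated expression of IL-2 (aa 1-153) fused at its C-terminus to Gaussia luciferase.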

[4] = tested on: multiple myeloma cell line NCl-H929; assay: H929 Cell Viability Assay; assay type: cell-based, human; settings: Homo sapiens, NCI-H929, 48 h
Method in brief: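 Viability was determined by CellTiter-Glo luminescence after a 48 h, 37 °C exposure of NCI-H929 cells to serial compound dilutions in medium containing 10% FBS. Where stereochemistry is not shown, values refer to a mix of stereoisomers.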

[5] = tested on: multiple myeloma cell line U266B1; assay: U266 Cell Viability Assay; assay type: cell-based, human; settings: Homo sapiens, U-266, 48 hr
Method in brief: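 Viability was measured by CellTiter-Glo luminescence after 48 h compound exposure at 37° C, 5% CO2. The cells were U266B1 multiple myeloma cells grown in RPMI 1640 plus 10% FBS. Where stereochemistry is not shown, values apply to the stereoisomer mixture.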

[6] = In Vitro Microsome Stability Assay (human); assay type: in vitro ADME
Method in brief: (§1)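 Species liver microsomes in potassium phosphate buffer were preincubated at 37 °C for 3–5 min with test compound (added from 0.25 mM DMSO stock), then started with NADPH. Samples at 0 and 30 min were quenched with acetonitrile containing internal standard and analysed by LC-MS/MS; % remaining at 30 min used analyte/IS AUC ratios relative to t=0.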

[7] = In Vitro Microsome Stability Assay (mouse); assay type: in vitro ADME
Method in brief: as §1

[8] = In Vitro Microsome Stability Assay (rat); assay type: in vitro ADME
Method in brief: as §1

[9] = In Vitro Microsome Stability Assay (monkey); assay type: in vitro ADME
Method in brief: as §1

GM-CSF = assay: Human PBMC Cytokine Assay: GM-CSF; assay type: cell-based; settings: anti-CD3/CD28 stimulation, 24 hours
Procedure: (§2) Human PBMC were freshly isolated from whole blood collections of 3 normal donors utilizing density gradient centrifugation followed by red blood cell lysis. PBMC from each donor were assayed separately. Cells were suspended in RPMI 1640 media supplemented with 5% fetal bovine serum, 2 mM L-glutamine, 10 mM HEPES, and 1× penicillin/streptomycin. PBMC were seeded at 200,000 cells/well in 96-well round-bottom plates either without stimulation or with stimulation by lipopolysaccharide (LPS, 1 μg/mL) or antibodies against human CD3 (plate-bound, 2 μg/mL) and human CD28 (soluble, 2 μg/mL). Serial dilutions of compound in DMSO/media were simultaneously added and PBMC were incubated at 37° C., 5% CO2 for 24 hours. After 24 hours, plates were centrifuged and half of the supernatant volume removed for cytokine analysis by electrochemiluminescent immunoassay (U-PLEX® Biomarker Multiplex, Meso Scale Discovery). For viability analysis, CellTiter-Glo® (Promega) was added to the remaining material in each well and quantified via luminescent plate reader.

IFNγ = assay: Human PBMC Cytokine Assay: IFNγ; assay type: cell-based; settings: anti-CD3/CD28 stimulation, 24 hours
Procedure: as §2

IL-1β = assay: Human PBMC Cytokine Assay: IL-1β; assay type: cell-based; settings: LPS stimulation, 24 hours
Procedure: as §2

IL-2 = assay: Human PBMC Cytokine Assay: IL-2; assay type: cell-based; settings: anti-CD3/CD28 stimulation, 24 hours
Procedure: as §2

IL-6 = assay: Human PBMC Cytokine Assay: IL-6; assay type: cell-based; settings: LPS stimulation, 24 hours
Procedure: as §2

IL-23 = assay: Human PBMC Cytokine Assay: IL-23; assay type: cell-based; settings: LPS stimulation, 24 hours
Procedure: as §2

TNFα = assay: Human PBMC Cytokine Assay: TNFα; assay type: cell-based; settings: anti-CD3/CD28 stimulation, 24 hours
Procedure: as §2

Human PBMC = Human PBMC CellTiter-Glo viability; assay type: cell-based; settings: no stimulation, 24 hours
Procedure: as §2

[10] = tested on: full length PD1 (amino acids 1-288) fused to Firefly Luciferase; assay: Dox Induced PD1-FL-Gluc Assay; assay type: cell-based; settings: 24 hr, 293FRT/TO; read-out: 24 hr Dox Inducible PD1FLFluc 293FRT/TO: Mean IC50
Description: FIp-In 293 T-REx™ cells were transfected with pcDNA™5/FRT/TO plasmid inserted with cDNA encoding Firefly Luciferase fused to the 3′ end of cDNA encoding full length PD1 (amino acids 1-288). Transfected cells were selected for resistance to the selectable markers Hygromycin and Blasticidin to create a stable cell line that contained the PD1-FL/Firefly Luciferase cDNA insert whose expression was regulated under the T-REx™ system. The day before assay, cells were trypsinized and plated in 384-well tissue culture plates. The next day, compound dilutions in DMSO/media containing doxycycline were added to the wells and incubated at 37° C., 5% CO2.
For chemical structures that include one or more stereoisomers, but are illustrated without indicating stereochemistry, the assay data refers to a mixture of stereoisomers.

[11] = H929, read-out: 48 hr H929 Viability Celltiter-Glo: Mean EC50
[12] = U266, read-out: 48 hr U266 Viability Celltiter-Glo: Mean EC50

Compound | IC50 ([1]; 293FRT/TO) [µM] | IC50 [10] [µM] | IC50 ([2]; 293FRT/TO) [µM] | IC50 ([3]; 293FRT/TO) [µM] | EC50 [4, 11] [µM] | EC50 [5, 12] [µM] | Liver Microsome Stability-% Left after 30 min w/ NADPH (%) Human ([6]; human, 30 min, NADPH) [%] | Liver Microsome Stability-% Left after 30 min w/ NADPH (%) Mouse ([7]; mouse, 30 min, NADPH) [%] | Liver Microsome Stability-% Left after 30 min w/ NADPH (%) Rat ([8]; rat, 30 min, NADPH) [%] | Liver Microsome Stability-% Left after 30 min w/ NADPH (%) Monkey ([9]; monkey, 30 min, NADPH) [%] | also measured
Cc1ccccc1CN1CCCN(S(=O)(=O)c2ccc(N(C)C)cc2)C[C@H](C)CN(S(=O)(=O)N2CCc3cc(Cl)ccc3C2)CCC1 [A133, 4-{[(3S)-5-[(6-chloro-1,2,3,4-tetrahydroisoquinolin-2-yl)sulfonyl]-3-methyl-9-[(2-methylphenyl)methyl]-1,5,9-triazacyclododecan-1-yl]sulfonyl}-N,N-dimethylaniline] | – | – | – | – | – | – | – | – | – | – | IC50 ([1]; Dox inducible, 293FRT/TO cells): 0.0368 µM; IC50 ([2]; Dox inducible, 293FRT/TO cells): 0.749 µM; IC50 ([3]; Dox inducible, 293FRT/TO cells): 0.135 µM; EC50 ([4]; H929, Celltiter-Glo): 5.12 µM; EC50 ([5]; U266, Celltiter-Glo): > 25 µM; Liver Microsome Stability-% Left after 30 min w/ NADPH (%) Human ([6]; human liver microsomes, 30 min w/ NADPH): 71.3%; Liver Microsome Stability-% Left after 30 min w/ NADPH (%) Mouse ([7]; mouse liver microsomes, 30 min w/ NADPH): 82.2%; Liver Microsome Stability-% Left after 30 min w/ NADPH (%) Rat ([8]; rat liver microsomes, 30 min w/ NADPH): 87.3%; Liver Microsome Stability-% Left after 30 min w/ NADPH (%) Monkey ([9]; monkey liver microsomes, 30 min w/ NADPH): 67.3%; IC50 (GM-CSF): 404 nM; IC50 (IFNγ): 234 nM; IC50 (IL-1β): > 25000 nM; IC50 (IL-2): 197 nM; IC50 (IL-6): 193 nM; IC50 (IL-23): 1050 nM; IC50 (TNFα): 216 nM; IC50 (Human PBMC): > 25000 nM
C=C1CN(S(=O)(=O)c2ccc(N(C)C)cc2)CCCN(CC2CCCCC2)CCCN(S(=O)(=O)N2CC=C(c3ccc(Cl)cc3)CC2)C1 [A74, 4-[(5-{[4-(4-chlorophenyl)-1,2,3,6-tetrahydropyridin-1-yl]sulfonyl}-9-(cyclohexylmethyl)-3-methylidene-1,5,9-triazacyclododecan-1-yl)sulfonyl]-N,N-dimethylaniline] | 0.0774 | 0.258 | > 25 | 0.248 | > 25 | > 25 | 56.3 | 53.7 | 55.7 | 60.6 | –
C=C1CN(S(=O)(=O)c2ccc(N(C)C)cc2)CCCN(CC2CCCCC2)CCCN(S(=O)(=O)N2CCC[C@@H](c3ccccc3)C2)C1 [A43, 4-{[9-(cyclohexylmethyl)-3-methylidene-5-{[(3S)-3-phenylpiperidin-1-y]sulfonyl}-1,5,9-triazacyclododecan-1-yl]sulfonyl}-N,N-dimethylaniline] | 0.0469 | 0.161 | 1.21 | 0.133 | 2.97 | > 25 | 15.4 | 20.1 | 22.3 | 12 | –
C[C@H]1CN(S(=O)(=O)c2ccc(N(C)C)cc2)CCCN(CC2CCCCC2)CCCN(S(=O)(=O)N2CCC(c3ccccc3)CC2)C1 [A77, 4-{[(3S)-9-(cyclohexylmethyl)-3-methyl-5-[(4-phenylpiperidin-1-yl)sulfonyl]-1,5,9-triazacyclododecan-1-yl]sulfonyl}-N,N-dimethylaniline] | 0.095 | 0.338 | 5.54 | 0.36 | 4.01 | > 25 | 30.1 | 37.3 | 32.5 | 20.8 | –

Further lines, with some results ahead:

IC50 ([1]; 293FRT/TO) [µM] | IC50 [10] [µM] | IC50 ([2]; 293FRT/TO) [µM] | IC50 ([3]; 293FRT/TO) [µM] | EC50 [4, 11] [µM] | EC50 [5, 12] [µM] | Liver Microsome Stability-% Left after 30 min w/ NADPH (%) Human ([6]; human, 30 min, NADPH) [%] | Liver Microsome Stability-% Left after 30 min w/ NADPH (%) Mouse ([7]; mouse, 30 min, NADPH) [%] | Liver Microsome Stability-% Left after 30 min w/ NADPH (%) Rat ([8]; rat, 30 min, NADPH) [%] | Liver Microsome Stability-% Left after 30 min w/ NADPH (%) Monkey ([9]; monkey, 30 min, NADPH) [%] | Compound | also measured
0.156 | 0.404 | 6.38 | 0.37 | 6.67 | > 25 | 0.16 | 0.12 | 0.4 | 0.11 | CC1CCN(S(=O)(=O)N2CCCN(CC3CCCCC3)CCCN(S(=O)(=O)c3ccc(N(C)C)cc3)CC3(CC3)C2)CC1 [A22, 4-{[9-(cyclohexylmethyl)-13-[(4-methylpiperidin-1-yl)sulfonyl]-5,9,13-triazaspiro[2.11]tetradecan-5-yl]sulfonyl}-N,N-dimethylaniline] | –
0.365 | 0.866 | > 25 | 0.624 | > 25 | > 25 | 0.21 | 0.18 | 0.17 | 0.08 | Cc1ccc(S(=O)(=O)N2CCCN(CC3CCCCC3)CCCN(S(=O)(=O)c3ccc(N(C)C)cc3)CC3(CC3)C2)cc1 [A11, 4-{[9-(cyclohexylmethyl)-13-(4-methylbenzenesulfonyl)-5,9,13-triazaspiro[2.11]tetradecan-5-yl]sulfonyl}-N,N-dimethylaniline hydrochloride] | –
